According to patent publication US10065990B2, “Cyclic peptide compound, and preparation method, pharmaceutical composition and use thereof” (HANGZHOU GUANYU BIO-MEDICAL CO., LTD, priority 2013, dated 2018):

Assays:
[1] = tested on: lncap (prostate cancer cells); test: MTT cancer cell growth inhibition; type: cell-based; settings: Homo sapiens, LNCaP, 72 h, lncap cells, MTT, 72 hours incubation; read-out: GI50 lnca
In short: (§1)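 Tumour cells in 10% FBS-supplemented DMEM or RPMI 1640 are plated at 1500 per well, dosed next day with compound (10^−5 through 10^−10 M, final) and kept 72 h. MTT is added for 4 h; dissolved formazan is measured at 570 nm and GI50 determined.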

[2] = tested on: HT1080 (human fibrosarcoma cells); test: MTT cancer cell growth inhibition; type: cell-based; settings: Homo sapiens, HT-1080, 72 h, HT1080 cells, MTT, 72 hours incubation; read-out: GI50 HT1
In short: as §1

[3] = tested on: N-87 (human gastric cancer cells); test: MTT cancer cell growth inhibition; type: cell-based; settings: Homo sapiens, 72 h, MTT, 72 hours incubation, N-87 cells; read-out: GI50 N-87
In short: as §1

[4] = tested on: Bel-7402 (human hepatoma cells); test: MTT cancer cell growth inhibition; type: cell-based; settings: Homo sapiens, Bel-7402, 72 h, MTT, 72 hours incubation, Bel-7402 cells; read-out: GI50 Bel-7402
In short: as §1

[5] = tested on: SGC-7901 (human gastric cancer cells); test: MTT cancer cell growth inhibition; type: cell-based; settings: Homo sapiens, SGC-7901, 72 h, MTT, 72 hours incubation, SGC-7901 cells; read-out: GI50 SGC-7901
In short: as §1

[6] = tested on: HCC827 (human non-small cell lung cancer cells); test: MTT cancer cell growth inhibition; type: cell-based; settings: Homo sapiens, HCC827, 72 h, MTT, 72 hours incubation, HCC827 cells; read-out: GI50 HCC827
In short: as §1

[7] = tested on: K562 (human leukemia cells); test: MTT cancer cell growth inhibition; type: cell-based; settings: Homo sapiens, K562, 72 h, MTT, 72 hours incubation, K562 cells; read-out: GI50 K562
In short: as §1

[8] = tested on: U937 (human leukemia cells); test: MTT cancer cell growth inhibition; type: cell-based; settings: Homo sapiens, U-937, 72 h, U937 cells, MTT, 72 hours incubation; read-out: GI50 U93
In short: as §1

[9] = tested on: KBM5-T315I (human chronic myelogenous leukemia); test: MTT cancer cell growth inhibition; type: cell-based; settings: Homo sapiens, 72 h, MTT, 72 hours incubation, KBM5-T315I cells; read-out: GI50 KBM5-T315I
In short: as §1

[10] = tested on: MOLT-4 (human acute lymphoblastic leukemia cells); test: MTT cancer cell growth inhibition; type: cell-based; settings: Homo sapiens, MOLT-4, 72 h, MOLT-4 cells, MTT, 72 hours incubation; read-out: GI50 Mol
In short: as §1

[11] = tested on: A549 (human lung cancer cells); test: MTT cancer cell growth inhibition; type: cell-based; settings: Homo sapiens, A549, 72 h, A549 cells, MTT, 72 hours incubation; read-out: GI50 A54
In short: as §1

[12] = tested on: MCF-7 (human breast cancer cells); test: MTT cancer cell growth inhibition; type: cell-based; settings: Homo sapiens, MCF7, 72 h, MCF-7 cells, 72 hours incubation, read-out: GI50 MCF
In short: as §1

[13] = tested on: BGC-823 (human gastric cancer cells); test: MTT cancer cell growth inhibition; type: cell-based; settings: Homo sapiens, BGC-823, 72 h, BGC-823 cells, MTT, 72 hours incubation; read-out: GI50 BG
In short: as §1

[14] = tested on: KBM-5 (human chronic myelogenous leukemia); test: MTT cancer cell growth inhibition; type: cell-based; settings: Homo sapiens, KBM5, 72 h, MTT, 72 hours incubation, KBM-5 cells; read-out: GI50 KBM-5
In short: as §1

[15] = tested on: Hela (human cervical cancer cells); test: MTT cancer cell growth inhibition; type: cell-based; settings: Homo sapiens, HeLa, 72 h, Hela cells, MTT, 72 hours incubation; read-out: GI50 Hela
In short: as §1

[16] = tested on: H1975 (non-small cell lung adenocarcinoma); test: MTT cancer cell growth inhibition; type: cell-based; settings: Homo sapiens, NCI-H1975, 72 h, MTT, 72 hours incubation, H1975 cells; read-out: GI50 H1975
In short: as §1

[17] = tested on: MDA-MB-231 (breast cancer cells); test: MTT cancer cell growth inhibition; type: cell-based; settings: Homo sapiens, MDA-MB-231, 72 h, read-out: GI50 MDA-MB-231, MTT, 72 hours incubation, MDA-MB-231 cells
In short: as §1

[18] = tested on: DU145 (human prostate cancer cells); test: MTT cancer cell growth inhibition; type: cell-based; settings: Homo sapiens, DU-145, 72 h, DU145 cells, MTT, 72 hours incubation; read-out: GI50 Du1
In short: as §1

[19] = tested on: Huh-7 (human hepatoma cells); test: MTT cancer cell growth inhibition; type: cell-based; settings: Homo sapiens, Huh-7, 72 h, MTT, 72 hours incubation, Huh-7 cells; read-out: GI50 Huh-7
In short: as §1

[20] = tested on: PANC-1 (Pac-1, human pancreatic cancer cells); test: MTT cancer cell growth inhibition; type: cell-based; settings: Homo sapiens, PANC-1, 72 h, PANC-1 cells, MTT, 72 hours incubation; read-out: GI50 PAN
In short: as §1

[21] = target: T1, HDAC7 (Homo sapiens, UniProt Q8WUI4); test: HDAC biochemical activity measurement (fluorescent substrate deacetylation);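 on all read-outs here: fluorogenic deacetylation assay using acetyl-lysine substrate at 20 µM, enzyme and compound incubated 30 min at 37 °C, then developer added, fluorescence read at 360/460 nm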; settings: for IC50 HDAC7: 37° C. 30 minutes
T1 sequence (Q8WUI4 1-952): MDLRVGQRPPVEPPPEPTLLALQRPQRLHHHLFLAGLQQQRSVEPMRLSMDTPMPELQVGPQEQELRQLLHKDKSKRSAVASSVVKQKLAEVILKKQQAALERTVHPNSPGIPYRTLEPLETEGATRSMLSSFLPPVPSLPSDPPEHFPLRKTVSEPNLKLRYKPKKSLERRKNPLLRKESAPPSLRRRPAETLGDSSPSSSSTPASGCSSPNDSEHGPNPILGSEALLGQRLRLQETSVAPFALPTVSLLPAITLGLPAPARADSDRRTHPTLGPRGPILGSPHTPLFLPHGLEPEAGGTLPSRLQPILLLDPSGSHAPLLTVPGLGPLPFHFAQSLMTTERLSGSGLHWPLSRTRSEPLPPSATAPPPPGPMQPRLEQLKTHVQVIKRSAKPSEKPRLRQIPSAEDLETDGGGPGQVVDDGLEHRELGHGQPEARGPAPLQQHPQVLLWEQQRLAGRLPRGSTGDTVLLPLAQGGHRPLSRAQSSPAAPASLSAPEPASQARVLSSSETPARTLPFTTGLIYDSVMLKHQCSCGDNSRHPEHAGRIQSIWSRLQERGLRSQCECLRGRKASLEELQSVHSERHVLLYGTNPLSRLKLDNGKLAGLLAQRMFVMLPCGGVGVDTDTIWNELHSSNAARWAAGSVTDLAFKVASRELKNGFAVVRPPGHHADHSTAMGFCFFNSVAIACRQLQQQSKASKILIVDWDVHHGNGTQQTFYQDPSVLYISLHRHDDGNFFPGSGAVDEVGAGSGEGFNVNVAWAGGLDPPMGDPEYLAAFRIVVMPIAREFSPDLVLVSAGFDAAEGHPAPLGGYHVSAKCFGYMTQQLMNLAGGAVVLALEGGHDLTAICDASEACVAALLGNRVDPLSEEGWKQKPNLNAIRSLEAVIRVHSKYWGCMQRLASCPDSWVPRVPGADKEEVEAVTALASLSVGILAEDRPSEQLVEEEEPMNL

C/C=C1\NC(=O)c2cc(SC)cc(n2)CNC(=O)C[C@@H](/C=C/CCS)OC(=O)[C@H](C)NC1=O [Compound 233]
GI50 [1]: 20 nM
GI50 [2]: 70 nM
GI50 [3]: 35 nM
GI50 [4]: 81 nM
GI50 [5]: 51 nM
GI50 [6]: 81 nM
GI50 [7]: 24 nM
GI50 [8]: 80 nM
GI50 [9]: 46 nM
GI50 [10]: 30 nM
GI50 [11]: 20 nM
GI50 [12]: 20 nM
GI50 [13]: 60 nM
GI50 [14]: 97 nM
GI50 [15]: 50 nM
GI50 [16]: 51 nM
GI50 [17]: 36 nM
GI50 [18]: 50 nM
GI50 [19]: 41 nM
GI50 [20]: 20 nM
IC50 HDAC7 [21]: no activity

C/C=C1\NC(=O)c2ccc(SC)c(n2)CNC(=O)C[C@@H](/C=C/CCS)OC(=O)[C@H](C)NC1=O [Compound 234]
GI50 [1]: 20 nM
GI50 [2]: 10 nM
GI50 [3]: 23 nM
GI50 [4]: 82 nM
GI50 [5]: 39 nM
GI50 [6]: 16 nM
GI50 [7]: 38 nM
GI50 [8]: 20 nM
GI50 [9]: 32 nM
GI50 [10]: 30 nM
GI50 [11]: 20 nM
GI50 [12]: 30 nM
GI50 [13]: 80 nM
GI50 [14]: 12 nM
GI50 [15]: 60 nM
GI50 [16]: 52 nM
GI50 [17]: 39 nM
GI50 [18]: 50 nM
GI50 [19]: 42 nM
GI50 [20]: 30 nM
IC50 HDAC7 [21]: no activity

C/C=C1\NC(=O)c2nc(ccc2SCC)CNC(=O)C[C@@H](/C=C/CCSC(=O)CCCCCCC)OC(=O)[C@H](C(C)C)NC1=O [Compound 247]
GI50 [1]: 20 nM
GI50 [2]: 60 nM
GI50 [3]: 23 nM
GI50 [4]: 95 nM
GI50 [5]: 65 nM
GI50 [6]: 41 nM
GI50 [7]: 33 nM
GI50 [8]: 70 nM
GI50 [9]: 45 nM
GI50 [10]: 30 nM
GI50 [11]: 60 nM
GI50 [12]: 50 nM
GI50 [13]: 10 nM
GI50 [14]: 32 nM
GI50 [15]: 50 nM
GI50 [16]: 32 nM
GI50 [17]: 38 nM
GI50 [18]: 20 nM
GI50 [19]: 53 nM
GI50 [20]: 50 nM
IC50 HDAC7 [21]: no activity

C/C=C1\NC(=O)c2cc(SCC)cc(n2)CNC(=O)C[C@@H](/C=C/CCSC(=O)CCCCCCC)OC(=O)[C@H](C(C)C)NC1=O [Compound 248]
GI50 [1]: 30 nM
GI50 [2]: 50 nM
GI50 [3]: 83 nM
GI50 [4]: 29 nM
GI50 [5]: 26 nM
GI50 [6]: 93 nM
GI50 [7]: 48 nM
GI50 [8]: 80 nM
GI50 [9]: 72 nM
GI50 [10]: 30 nM
GI50 [11]: 30 nM
GI50 [12]: 30 nM
GI50 [13]: 60 nM
GI50 [14]: 23 nM
GI50 [15]: 60 nM
GI50 [16]: 65 nM
GI50 [17]: 45 nM
GI50 [18]: 30 nM
GI50 [19]: 33 nM
GI50 [20]: 20 nM
IC50 (μM) HDAC7 [21]: no activity
